Reference: US9663764B2, “Generation of cardiomyocytes from human pluripotent stem cells” (Wisconsin Alumni Research Foundation, priority 2011, dated 2017)

How the values were obtained:
Format in all cases: cell-based, human
[1] = tested on: 19-9-11 shcat-2 and scramble lines; experiment: RT-PCR/qPCR gene expression in CH-treated 19-9-11 shcat-2 and scramble lines
Experimental: RT-PCR and Quantitative RT-PCR: Total RNA was prepared with the RNeasy mini kit (QIAGEN) and treated with DNase (QIAGEN). 1 μg RNA was reverse transcribed into cDNA via Oligo (dT) with Superscript III Reverse Transcriptase (Invitrogen). Real-time quantitative PCR was done in triplicate with iQ SYBR Green SuperMix (Bio-Rad). RT-PCR was done with Gotaq Master Mix (Promega) and then subjected to 2% agarose gel electrophoresis. ACTB was used as an endogenous control. To test whether induction of cardiomyocyte differentiation by GSK3 inhibitors requires β-catenin, the inventors treated the shcat-2 and scramble 19-9-11 lines with CH in mTeSR1 medium. While the shcat-2 line maintained an undifferentiated morphology, the scramble line appeared to undergo differentiation (FIG. 2E), similar to non-transduced lines treated with CH (FIGS. 1B and 2B). Induction of differentiation following CH treatment in the scramble control was further indicated by diminished SOX2 and NANOG expression at day 4 (FIG. 3C). […] After 4 days of CH treatment in mTeSR1, the percentage of cells expressing Oct4 decreased to 61% in the scramble line, while 98% of the shcat-2 cells expressed Oct4 (FIG. 3D). […] To better understand early mesoderm induction via GSK3 inhibition, the inventors analyzed expression of the early mesoderm gene T in scramble and shcat-2 19-9-11 lines. As CH concentration increased, the ratio of T expression in scramble to the shcat-2 line increased (FIG. 3E). Less than 2% of shcat-2 cells expressed brachyury upon exposure to different concentrations of CH treatment for 4 days.

H9 hESCs = experiment: Cardiac differentiation via EBs after CH pretreatment, contracting outgrowths; conditions: 0-8 μM CH for three days prior to EB formation; spontaneously-contracting outgrowths
Experimental: Cardiac Differentiation Via EBs: hPS cells were passaged onto MEFs (˜13,000 cells/cm^2) and cultured in hESC medium for 2 days followed by another 3 days in hESC medium supplemented with BIO (Sigma) or CHIR99021 (Selleck). To form EBs, hPS cell aggregates generated by […] were cultured in low-attachment plates overnight in RPMI plus 20% KnockOut serum replacer. The next day, the EBs were cultured in EB20 (RPMI plus 20% FBS) for 4 days in suspension. EBs were then plated onto 0.1% gelatin-coated 6-well culture plates at 50-100 EBs/well, and cultured in EB20 medium. After 10 days of differentiation, the FBS concentration was reduced to 2% EB2 (RPMI plus 2% FBS). The number of contracting EBs was visually assessed using a microscope with a 37° C. heated stage. […] Undifferentiated H9 hESCs were cultured in the presence of 0-8 μM CH for three days prior to EB formation. EBs were cultured in suspension for 4 days before transferring to 0.1% gelatin coated plates. […] The inventors also applied the GSK3 inhibitors CH and BIO to undifferentiated H9 hESCs three days prior to directed differentiation to cardiomyocytes via Activin A and BMP4.

[2] = tested on: Smad1/5 and Smad2 phosphorylation in 19-9-11 ishcat cells; experiment: Smad1/5 and Smad2 phosphorylation, western blot; conditions: 12 μM CH treatment
Experimental: Western Blot Analysis: Cells were lysed in M-PER Mammalian Protein Extraction Reagent (Pierce) in the presence of Halt Protease and Phosphatase Inhibitor Cocktail (Pierce). Proteins were separated by 10% Tris-Glycine SDS/PAGE (Invitrogen) under denaturing conditions and transferred to a nitrocellulose membrane. After blocking with 5% milk in TBST, the membrane was incubated with primary antibody overnight at 4° C. The membrane was then washed, incubated with an anti-mouse/rabbit peroxidase-conjugated secondary antibody (1:1000, Cell Signaling) at room temperature for 1 hr, and developed by SuperSignal chemiluminescence (Pierce).
To determine whether canonical Wnt signaling requires TGFβ superfamily signaling to induce cardiogenesis, the inventors quantified cTnT+ cell generation in 19-9-11 ishcat-2 cells when Activin A and BMP4 signaling antagonists were presented during the first 24 hr of cardiomyocyte induction with 12 μM CH. All samples were treated with dox at 48 hours. […] To further investigate the role of TGFβ superfamily signaling in Wnt pathway-mediated cardiogenesis the inventors assessed Smad1/5 and Smad2 phosphorylation, downstream of BMP4 and Activin A signaling respectively. As expected, substantial Smad1/5 and Smad2 phosphorylation was detected in cells that had been treated with Activin A and BMP4 (FIGS. 9B and 10A).

[3] = tested on: BMP2, BMP4 and NODAL expression in 19-9-11 ishcat-2 cells; experiment: RT-PCR of TGFβ pathway genes during CH-induced differentiation; conditions: upon 12 μM CH treatment
Experimental: RT-PCR and Quantitative RT-PCR: Total RNA was prepared with the RNeasy mini kit (QIAGEN) and treated with DNase (QIAGEN). 1 μg RNA was reverse transcribed into cDNA via Oligo (dT) with Superscript III Reverse Transcriptase (Invitrogen). Real-time quantitative PCR was done in triplicate with iQ SYBR Green SuperMix (Bio-Rad). RT-PCR was done with Gotaq Master Mix (Promega) and then subjected to 2% agarose gel electrophoresis. ACTB was used as an endogenous control. To determine whether canonical Wnt signaling requires TGFβ superfamily signaling to induce cardiogenesis, the inventors quantified cTnT+ cell generation in 19-9-11 […]-2 cells when Activin A and BMP4 signaling antagonists were presented during the first 24 hr of cardiomyocyte induction with 12 μM CH. All samples were treated with dox at 48 hours. […] To further investigate the role of TGFβ superfamily signaling in Wnt pathway-mediated cardiogenesis the inventors assessed Smad1/5 and Smad2 phosphorylation, downstream of BMP4 and Activin A signaling respectively. As expected, substantial Smad1/5 and Smad2 phosphorylation was detected in cells that had been treated with Activin A and BMP4 (FIGS. 9B and 10A).

H9-7TGP cells = experiment: Immunofluorescent analysis of CH-induced H9-7TGP GFP+ cells; conditions: 12 μM CHIR99021 in mTeSR1 for 4 days
Experimental: Immunostaining: Cells were fixed with 4% paraformaldehyde for 15 min at room temperature and then stained with primary and secondary antibodies in PBS plus 0.4% Triton X-100 and 5% non-fat dry milk (Bio-Rad). Nuclei were stained with Gold Anti-fade Reagent with DAPI (Invitrogen). An epifluorescence microscope (Leica DM IRB) with a QImaging® Retiga 4000R camera was used for imaging analysis. In order to probe the activation of canonical Wnt/β-catenin signaling during hPS cell specification to cardiomyocytes, the inventors generated a series of promoter-reporter cell lines in H1 and H9 hESC, and 19-9-11 human iPSC lines. These reporter lines, integrated with a lentiviral 7TGP vector, express GFP under control of a consensus TCF/LEF binding sequence promoter which reports β-catenin activation (FIG. 2A) (Fuerer and Nusse, PLoS One 5:e9370 (2010)). […] Approximately 50% of H9-7TGP cells expressed GFP at 4 days post-addition of 15 μM CH.

SMILES: Cc1c[nH]c(-c2cnc(NCCNc3ccc(C#N)cn3)nc2-c2ccc(Cl)cc2Cl)n1 [CH]
- expression of mesendoderm and early mesoderm genes MIXL1, GSC, T, WNT3A and MSX1 ([1]; 12 μM CH for 4 days, scramble versus shcat-2): emerged in CH-treated scramble cells but not CH-treated shcat-2 cells
- ratio of T expression in scramble to the shcat-2 line ([1]; increasing CH concentration, 2 days, qPCR): increased
- SOX2 and NANOG expression ([1]; scramble control, CH treatment, day 4): diminished
- SOX2 and NANOG expression ([1]; shcat-2 cells treated with CH): No significant differences
- CH concentration at which efficiency of cardiomyocyte differentiation peaked (H9 hESCs): 2 to 4 µM
- Smad1/5 and Smad2 activation [2]: levels comparable to those induced by Activin A and BMP4
- NODAL expression [3]: transient upregulation
- BMP2 and BMP4 gene expression ([3]; throughout differentiation): gradually upregulated
- Oct4, Isl1 and Nkx2.5 expression in CH-induced GFP+ cells (H9-7TGP cells): did not express Oct4, but did express Isl1 and Nkx2.5
